# Where two headings read alike, the source gives them in different places.
# T1: acid phosphatase derived from Escherichia blattae (Shimwellia blattae, UniProt I2BB71)
# T1 construct: homo-oligomer; 18-residue signal peptide removed
# T1 sequence (I2BB71 19-249): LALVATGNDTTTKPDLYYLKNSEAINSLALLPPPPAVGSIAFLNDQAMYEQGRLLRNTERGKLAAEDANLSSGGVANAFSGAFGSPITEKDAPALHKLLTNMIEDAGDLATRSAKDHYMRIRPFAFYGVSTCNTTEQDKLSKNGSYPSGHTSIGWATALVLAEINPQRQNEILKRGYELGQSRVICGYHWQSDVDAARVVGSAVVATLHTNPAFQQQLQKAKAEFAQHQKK
# T2: acid phosphatase derived from Morganella morganii (Morganella morganii, UniProt P28581)
# T2 construct: homo-oligomer of about 25 kDa subunits; 20-residue signal peptide removed
# T2 sequence (P28581 21-249): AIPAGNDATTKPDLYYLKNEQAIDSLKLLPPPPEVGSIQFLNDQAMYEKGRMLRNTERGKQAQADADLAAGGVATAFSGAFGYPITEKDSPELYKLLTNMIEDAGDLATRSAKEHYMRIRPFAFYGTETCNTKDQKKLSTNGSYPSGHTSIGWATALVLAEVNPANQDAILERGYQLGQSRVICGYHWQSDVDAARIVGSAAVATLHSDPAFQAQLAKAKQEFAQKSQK
# B1: acid phosphatase derived from Morganella morganii: enzyme purified from cell-free extract of Morganella morganii NCIMB 10466; mature protein SEQ ID NO: 4 (protein)
# chain: T2 sequence (P28581 21-249)
# How the values were obtained:
# [1] = molecular target: T1, acid phosphatase derived from Escherichia blattae; assay type: biochemical, Escherichia blattae JCM 1650
# [2] = molecular target: T2, acid phosphatase derived from Morganella morganii; assay type: biochemical
# [3] = molecular target: T3, acid phosphatase sample derived from Escherichia blattae (Shimwellia blattae, UniProt I2BB71); assay: Phosphorylation reaction of various nucleosides by acid phosphatase sample; assay type: biochemical, Escherichia blattae JCM 1650; settings: sodium pyrophosphate 15 g/dl, enzyme 50 units/dl, 3 hours; for Produced amount of nucleoside-5'-ester: nucleoside 3 g/dl, pH 4.0, 35° C.
# T3 construct: homo-oligomer; signal peptide removed
# Procedure: (§1) Incidentally, in the reaction to produce nucleoside-5'-phosphate esters using nucleosides other than inosine as raw materials, the nucleosides as raw materials and produced nucleoside-5'-phosphate esters were analyzed by HPLC as described above.
# (§2) Sodium pyrophosphate (15 g/dl) and inosine (3 g/dl) were dissolved in sodium acetate buffers each having pH of 5.5, 5.0, 4.5, 4.0, and 3.5, to which the enzyme sample described above was added so that a concentration of 50 units/dl was obtained. […] Produced inosinic acid contained only 5'-inosinic acid. By-production of 2'-inosinic acid and 3'-inosinic acid was not observed at all. The velocity of 5'-inosinic acid production was maximum at pH 5.0. However, the maximum accumulated amount of 5'-inosinic acid was higher at lower pH. The reaction condition at pH 4.0 was most efficient for production of 5'-inosinic acid. 5'-Inosinic acid was produced and accumulated in an amount of 1.56 g/dl by performing the reaction at 30° C. at pH 4.0 for 3 hours.
# The reaction mixture was incubated at 35° C. for 3 hours while maintaining pH at 4.0.
# [4] = molecular target: T4, acid phosphatase sample derived from Morganella morganii (Morganella morganii, UniProt P28581); assay: as above; assay type: biochemical, Morganella morganii NCIMB 10466; settings: sodium pyrophosphate 10 g/dl, nucleoside 2 g/dl, enzyme 50 units/dl, pH 4.0, 30° C., 3 hours
# T4 construct: homo-oligomer; signal peptide removed
# Procedure: as §1
# as §2, with “(10” for “(15”, “(2” for “(3”, “acid, in which 5'-inosinic” for “acid. 5'-Inosinic”, “2.60” for “1.56”, “reaction” for “reaction at 30° C. at pH 4.0”
# (§3) The reaction mixture was incubated at 30° C. for 3 hours while maintaining pH at 4.0.
# [5] = tested on: Escherichia coli JM109/pMPI530; assay: Production of various nucleoside-5'-phosphate esters by microbial cells of the mutant strain; assay type: cell-based; settings: sodium pyrophosphate 12 g/dl, nucleoside 6 g/dl, cells 100 mg/dl dry weight, pH 4.0, 30° C., 22 hours
# Text: (§4) Produced nucleotide contained only nucleoside-5'-phosphate ester. By-production of nucleoside-2'-phosphate ester and nucleoside-3'-phosphate ester was not observed at all.
# [6] = tested on: Escherichia coli JM109/pEPI330; assay: as above; assay type: cell-based; settings: sodium pyrophosphate 12 g/dl, nucleoside 6 g/dl, cells 200 mg/dl dry weight, pH 4.0, 35° C., 32 hours
# Text: as §4
# [7] = molecular target: T4, acid phosphatase sample derived from Morganella morganii; assay: Production of 5'-inosinic acid from various phosphate group donors by acid phosphatase sample; assay type: biochemical, Morganella morganii NCIMB 10466; settings: inosine 2 g/dl, phosphate group donor 10 g/dl, enzyme 50 units/dl, pH 4.0, 30° C., 3 hours
# Procedure: as §3
# [8] = tested on: Escherichia coli JM109/pMPI530; assay: Production of 5'-inosinic acid from various phosphate group donors by microbial cells of the mutant strain; assay type: cell-based; settings: inosine 6 g/dl, phosphate group donor 10 g/dl, cells 100 mg/dl dry weight, buffer pH 4.5, pH maintained at 4.0, 30° C., 22 hours
# Text: (§5) 5'-Inosinic acid was efficiently produced and accumulated by using any of the phosphate group donors. However, the accumulated amount of 5'-inosinic acid was the highest when polyphosphoric acid was used as the phosphate group donor.
# [9] = tested on: Escherichia coli JM109/pEPI330; assay: as above; assay type: cell-based; settings: inosine 6 g/dl, phosphate group donor 12 g/dl, cells 200 mg/dl dry weight, pH 4.0, 35° C., 32 hours
# Text: as §5
# [10] = molecular target: T3, acid phosphatase sample derived from Escherichia blattae; assay: Production of 5'-inosinic acid from various phosphate group donors by acid phosphatase sample; assay type: biochemical, Escherichia blattae JCM 1650; settings: inosine 2 g/dl, phosphate group donor 10 g/dl, enzyme 50 units/dl, pH 4.0, 35° C., 3 hours
# Procedure: The reaction miture was incubated at 35° C. for 3 hours while maintaining pH at 4.0.
# [11] = Phosphomonoesterase activity (inosine produced by hydrolysis of 5'-inosinic acid); assay type: biochemical; settings: purified Morganella morganii enzyme
# Procedure: The phosphomonoesterase activity was measured under the following condition using 5'-inosinic acid as a substrate. The reaction was performed at 30° C. for 10 minutes in a reaction solution (1 ml) containing 10 μmol/ml of 5'-inosinic acid, 100 μmol/ml of MES/NaOH buffer (pH 6.0), and an enzyme. The reaction was stopped by adding 200 μl of 2 N hydrochloric acid. After that, precipitates were removed by centrifugation. Then, inosine produced by the hydrolytic reaction was quantitatively measured. An amount of enzyme to produce 1 μmol of inosine per 1 minute under this standard reaction condition was defined as 1 unit.
# Inosine and 5'-inosinic acid were analyzed under the following condition by means of high-performance liquid chromatography (HPLC).
# [12] = Properties of the purified acid phosphatase derived from Morganella morganii; parameters: species or system Morganella morganii NCIMB 10466
# Procedure: A nutrient medium (pH 7.0, 50 ml) containing 1 g/dl of peptone, 0.5 g/dl of yeast extract, and 1 g/dl of sodium chloride was poured into Sakaguchi flasks (500 ml), which was sterilized at 120° C. for 20 minutes. A slant culture of Morganella morganii NCIMB 10466 was inoculated to each of the flasks once with a platinum loop, which was cultivated at 30° C. for 16 hours with shaking. Microbial cells (about 3,000 g), which were harvested from a culture by centrifugation, were suspended in 100 mM potassium phosphate buffer (1 L, pH 7.0). A ultrasonic treatment was performed at 4° C. for 20 minutes to disrupt the microbial cells. The treated suspension was centrifuged to remove its insoluble fraction. Thus a cell-free extract was prepared.
# The purified enzyme had the following properties.
# [13] = purified Escherichia blattae enzyme
# [14] = purified Morganella morganii enzyme
molecule,measurement,setting,value
[Ag+2] [Ag^2+],Effect of the addition of metal ion and inhibitor on enzyme activity,[1]; [13],inhibited
same,Effect of the addition of metal ion and inhibitor on enzyme activity,[2]; [14],inhibited
[Cu+2] [Cu^2+],Effect of the addition of metal ion and inhibitor on enzyme activity,[1]; [13],inhibited
same,Effect of the addition of metal ion and inhibitor on enzyme activity,[2]; [14],inhibited
"Nc1ccn([C@@H]2O[C@H](CO)[C@@H](O)[C@H]2O)c(=O)n1 [Cytidine, cytidine]",Produced amount of nucleoside-5'-ester,[3],1.22 g/dL
same,Produced amount of nucleoside-5'-ester,[4],0.98 g/dL
same,Produced amount of nucleoside-5'-phosphate ester,[5],7.82 g/dL
same,Produced amount of nucleoside-5'-phosphate ester,[6],6.60 g/dL
"NC(=O)OP(=O)([O-])[O-].[Na+].[Na+] [Disodium carbamyl phosphate, disodium carbamyl phosphate]",Produced 5'-inosinic acid,[7],2.54 g/dL
same,Produced 5'-inosinic acid,[8],9.89 g/dL
same,Produced 5'-inosinic acid,[9],7.73 g/dL
same,Produced 5'-inosinic acid,[10],1.53 g/dL
"O=P([O-])([O-])Oc1ccccc1.[Na+].[Na+] [Disodium phenylphosphate, disodium phenylphosphate]",Produced 5'-inosinic acid,[7],2.33 g/dL
same,Produced 5'-inosinic acid,[8],9.62 g/dL
same,Produced 5'-inosinic acid,[9],7.60 g/dL
same,Produced 5'-inosinic acid,[10],1.50 g/dL
[Fe+2] [Fe^2+],Effect of the addition of metal ion and inhibitor on enzyme activity,[1]; [13],inhibited
"Nc1nc2c(ncn2[C@@H]2O[C@H](CO)[C@@H](O)[C@H]2O)c(=O)[nH]1 [Guanosine, guanosine]",Produced amount of nucleoside-5'-ester,[3],1.05 g/dL
same,Produced amount of nucleoside-5'-ester,[4],1.90 g/dL
same,Produced amount of nucleoside-5'-phosphate ester,[5],6.72 g/dL
same,Produced amount of nucleoside-5'-phosphate ester,[6],4.77 g/dL
[Hg+2] [Hg^2+],Effect of the addition of metal ion and inhibitor on enzyme activity,[1]; [13],inhibited
same,Effect of the addition of metal ion and inhibitor on enzyme activity,[2]; [14],inhibited
"OC[C@H]1O[C@@H](n2cnc3c(O)ncnc32)[C@H](O)[C@@H]1O [Inosine, inosine]",5'-inosinic acid produced and accumulated,"[3]; inosine 3 g/dl, pH 4.0, 30° C.",1.56 g/dL
same,Produced amount of nucleoside-5'-ester,[3],1.56 g/dL
same,Produced amount of nucleoside-5'-ester,[4],2.60 g/dL
same,Produced amount of nucleoside-5'-phosphate ester,[5],10.01 g/dL
same,Produced amount of nucleoside-5'-phosphate ester,[6],7.45 g/dL
[Pb+2] [Pb^2+],Effect of the addition of metal ion and inhibitor on enzyme activity,[1]; [13],inhibited
same,Effect of the addition of metal ion and inhibitor on enzyme activity,[2]; [14],inhibited
"O=P(O)(O)OP(=O)(O)OP(=O)(O)O [Sodium tripolyphosphate, sodium tripolyphosphate]",Produced 5'-inosinic acid,[7],2.10 g/dL
same,Produced 5'-inosinic acid,[8],8.93 g/dL
same,Produced 5'-inosinic acid,[9],5.96 g/dL
same,Produced 5'-inosinic acid,[10],1.20 g/dL
"O=c1ccn([C@@H]2O[C@H](CO)[C@@H](O)[C@H]2O)c(=O)[nH]1 [Uridine, uridine]",Produced amount of nucleoside-5'-ester,[3],1.87 g/dL
same,Produced amount of nucleoside-5'-ester,[4],1.30 g/dL
same,Produced amount of nucleoside-5'-phosphate ester,[5],11.90 g/dL
same,Produced amount of nucleoside-5'-phosphate ester,[6],8.93 g/dL
O=C(O)CI [iodoacetic acid],Effect of the addition of metal ion and inhibitor on enzyme activity,[1],inhibited
same,Effect of the addition of metal ion and inhibitor on enzyme activity,[2],inhibited
sodium polyphosphate,Produced 5'-inosinic acid,[7],2.72 g/dL
same,Produced 5'-inosinic acid,[8],11.45 g/dL
same,Produced 5'-inosinic acid,[9],8.84 g/dL
same,Produced 5'-inosinic acid,[10],1.79 g/dL
B1,phosphate ester hydrolytic activity (phosphomonoestrase activity) relative to transphosphorylation activity,[11],not less than 20 times
same,Optimum temperature,[12],about 35 °C
same,Optimum pH,[12]; phosphate ester hydrolytic reaction,6.5
same,Optimum pH,[12]; transphosphorylation reaction,5.2
same,Temperature stability,[12]; treatment at pH 7.0 for 30 minutes,up to 30 °C

# Reference: patent publication US6010851A, “Method for producing nucleoside-5'-phosphate ester” (Ajinomoto Co., Inc., priority 1995, dated 2000)
